Experimental data published in patent US20240317727A1 (Duke University, priority 2018, published 2024).
pIC50: −log10 of the molar value.

Tests used:
[1] = molecular target: T1, purified recombinant human HSF1 (HSF1 DNA binding domain) (Homo sapiens, UniProt Q00613); assay: Melting temperature of HSF1 DBD with HSF1 degrader compounds (Sypro orange); conditions: 12.5 micromolar compound, 5 micromolar HSF1 DBD, compared to DMSO; read-out: ΔTm (° C.)
T1 sequence (Q00613 15-120): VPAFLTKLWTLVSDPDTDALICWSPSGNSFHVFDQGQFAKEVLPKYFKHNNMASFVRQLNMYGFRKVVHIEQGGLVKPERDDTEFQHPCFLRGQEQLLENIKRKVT
Description: The melting temperature (ΔTm) for purified recombinant human HSF1 (HSF1 DNA binding domain) was determined in the presence of HSF1 degrader compounds shown in Table 5 and compared to the solvent DMSO. Sypro orange dye was added to the HSF1 DBD (5 micromolar final concentration) in buffer, mixed and distributed to wells in 384 well microtiter plates. HSF1 degrader compound (12.5 micromolar) or DMSO solvent was added to three replicate wells per compound concentration, mixed and plates loaded into a Quant Studio thermnocycler and run on a temperature gradient from 25° C. to 85° C. with increments of 0.5° C. steps. Melting curves were obtained and analyzed using the ThermnoFisher Shift Software 1.4 fitted with a Boltzmann equation to determine the change in melting temperature of the protein in the presence of DMSO as compared to compound. The difference in the melting temperature under these two conditions was assigned as the change in melting temperature of ΔTm.

[2] = test system: C4-2 prostate cancer cells; assay: C4-2 cell proliferation, Cell Titre Glo; type: cell-based; conditions: Homo sapiens, 48-hour period, 9-point dilution series, read-out: Cell Viability IC50
Description: Next, cell viability of C4-2 prostate cancer cells was determined. C4-2 prostate cancer cells were grown in RMPI-1640 (no L-glutamine, Gibco 21870076) supplemented with 10% fetal bovine […] (non-heat-inactivated, Cytiva Hyclone SH30071.03). […] A 9-point dilution series was used to assess the ability of each compound to inhibit the growth of C4-2 prostate cancer cells over a 48-hour period, as compared to negative control solvent, DMSO. Cell proliferation was measured by the Cell Titre Glo assay using 384 well microtiter plate reader to quantitate luminescence. The IC50 was determined from the values obtained.

Hsp70 = assay: HSF1 target gene transcript expression qPCR in C4-2 cells, Hsp70; type: cell-based; conditions: Homo sapiens, 2 hours then SNX-2112 (100 nM) 5 hr, vs GAPDH and DMSO
Description: (§1) Next, the change in heat shock protein gene expression in C4-2 prostate cancer cells was determined. C4-2 prostate cancer cells were grown in RMPI-1640 (no L-glutamine, Gibco 21870076) supplemented with 10% fetal bovine […] (non-heat-inactivated, Cytiva Hyclone SH30071.03). To quantitatively measure the inhibition of HSF1 activity in C4-2 prostate cancer cells, compounds or DMSO were added to triplicate C4-2 cell cultures for 2 hours. HSF1 activity was then stimulated with the Hsp90 inhibitor SNX-2112 (100 nM) for an additional 5 hr at 37° C. in the presence of HSF1 degrader compounds or DMSO. Total RNA was extracted, converted to cDNA and used in qPCR assays to quantify the change in HSF1 target gene transcript expression (HSPA4L equals Hsp70, HSPB1 equals Hsp27 and DNAJB1 equals Hsp40) as compared to GAPDH internal control gene, and then compared to DMSO negative control.

DNAJB1 equals Hsp40 = assay: HSF1 target gene transcript expression qPCR in C4-2 cells, Hsp40; type: cell-based; conditions: Homo sapiens, 2 hours then SNX-2112 (100 nM) 5 hr, vs GAPDH and DMSO
Description: as §1

[3] = Rat liver microsome stability; type: in vitro ADME; conditions: rat liver microsomes, 37° C., read-out: Microsome Stability T1/2
Description: Next, the microsome stability in rats was determined for select compounds from Table 5. Test compounds are incubated with rat liver microsomes supplemented with co-factors at 37° C. Typical conditions were a compound concentration of 1 μM and 5 sampling time-points (0, 5, 15, 30 and 45 minutes), in duplicate. At each time-point, the reactions were terminated by the addition of organic solvent. The samples were centrifuged and the parent compound concentration was evaluated by LC-MS/MS measurements. Control compounds were included with well-established stability when incubated with rat microsomes. Multiple time points were used to determine % parent compound remaining at each time point and to calculate the Tiu2 for each compound in rat liver microsomes. A higher T1/2 indicates increased compound stability in microsomes.

[4] = molecular target: T2, recombinant HSF1 DNA-binding domain (DBD) (Homo sapiens, UniProt Q00613); assay: Differential Scanning Fluorimetry (DSF), HSF1 DBD melting temperature; conditions: Table 3; 5 μM HSF1 DBD, 25PM Compound; positive = stabilizes, negative = destabilizes HSF1
T2 sequence (Q00613 15-120): T1 sequence (Q00613 15-120)

ΔTm at 12.5 µM [1] [°C]	pIC50 [2]	half-life at 1 μM [3] [h]	ΔTm at 25 µM [4] [°C]	SMILES	mrna remaining at 10 µM (Hsp70) [%]	mrna remaining at 10 µM (DNAJB1 equals Hsp40) [%]
2.62	5.70	14.9	–	N#Cc1ccc(NC(=O)Nc2ccc(Cl)c(C(F)(F)F)c2)cc1 [Compound 242, 1-(4-chloro-3-(trifluoromethyl)phenyl)-3-(4-cyanophenyl)urea]	55	71
1.77	5.76	2.56	–	N#Cc1ccc(NC(=O)Nc2ccc(Cl)c(S(=O)(=O)C(F)(F)F)c2)cc1 [Compound 243, 1-(4-chloro-3-((trifluoromethyl)sulfonyl)phenyl)-3-(4-cyanophenyl)urea]	38.5	39.5
2.11	5.66	2.58	–	N#Cc1ccc(NC(=O)Nc2ccc3c(c2)S(=O)(=O)C=C3)cc1 [Compound 244, 1-(4-cyanophenyl)-3-(1,1-dioxidobenzo[b]thiophen-6-yl)urea]	–	–
2.74	< 5.00	–	–	N#Cc1ccc(NC(=O)Nc2ccc3nsnc3c2)cc1 [Compound 245, 1-(benzo[c][1,2,5]thiadiazol-5-yl)-3-(4-cyanophenyl)urea]	36	39
0.84	5.01	–	–	N#Cc1ccc(NC(=O)Nc2ccc3c(c2)S(=O)(=O)C=C3)cn1 [Compound 265, 1-(6-cyanopyridin-3-yl)-3-(1,1-dioxidobenzo[b]thiophen-6-yl)urea]	88	77
-0.64	6.09	–	–	N#Cc1ccc(NC(=O)Nc2ccc3c(c2)S(=O)(=O)C=C3)nc1 [Compound 266, 1-(5-cyanopyridin-2-yl)-3-(1,1-dioxidobenzo[b]thiophen-6-yl)urea]	83	93

Continued, compound first:

SMILES	ΔTm at 12.5 µM [1] [°C]	pIC50 [2]	half-life at 1 μM [3] [h]	ΔTm at 25 µM [4] [°C]	mrna remaining at 10 µM (Hsp70) [%]	mrna remaining at 10 µM (DNAJB1 equals Hsp40) [%]
O=C(Nc1ccc(F)cc1)Nc1ccc(Cl)c([N+](=O)[O-])c1 [Compound 17, 1-(4-chloro-3-nitrophenyl)-3-(4-fluorophenyl)urea]	3.69	5.25	1.54	–	30.4	23.6
O=C(Nc1ccc(F)cc1)Nc1ccc(Cl)c(S(=O)(=O)C(F)(F)F)c1 [Compound 54, 1-[4-chloro-3-(trifluoromethylsulfonyl)phenyl]-3-(4-fluorophenyl)urea]	2.1	5.50	–	–	23	37
COc1cc(NC(=O)Nc2ccc(Cl)c(C(F)(F)F)c2)ccc1C#N [Compound 247, 1-(4-chloro-3-(trifluoromethyl)phenyl)-3-(4-cyano-3-methoxyphenyl)urea]	2.8	5.62	–	–	63	73
N#Cc1ccc(NC(=O)Nc2ccc3c(c2)S(=O)(=O)C=C3)cc1C(F)(F)F [Compound 256, 1-(4-cyano-3-(trifluoromethyl)phenyl)-3-(1,1-dioxidobenzo[b]thiophen-6-yl)urea]	1.9	5.46	1.23	–	–	–
N#Cc1ccc(NC(=O)Nc2ccc(Cl)c(S(=O)(=O)C(F)(F)F)c2)c(CN2CCOCC2)c1 [Compound 297, 1-(4-chloro-3-((trifluoromethyl)sulfonyl)phenyl)-3-(4-cyano-2-(morpholinomethyl)phenyl)urea]	1.1	< 5.00	–	2.08	–	–
N#Cc1ccc(NC(=O)Nc2ccc(Cl)c(S(=O)(=O)C(F)(F)F)c2)c(CCN2CCOCC2)c1 [Compound 298, 1-(4-chloro-3-((trifluoromethyl)sulfonyl)phenyl)-3-(4-cyano-2-(2-morpholinoethyl)phenyl)urea]	1	< 5.00	–	2.28	–	–
N#Cc1ccc(NC(=O)Nc2ccc(Cl)c(S(=O)(=O)C(F)(F)F)c2)c(OCCN2CCOCC2)c1 [Compound 299, 1-(4-chloro-3-((trifluoromethyl)sulfonyl)phenyl)-3-(4-cyano-2-(2-morpholinoethoxy)phenyl)urea]	0.2	< 5.00	–	0.49	–	–
